# Test results from patent US20070111952A1, “Glycosylated triketide delta lactones” (priority 2003, published 2007).
# Columns and labels:
# [1] = tested on: A. azollae vegetative cells; test: Stability of the akinete-inducing activity (autoclaving, long storage); parameters: species or system Anabaena azollae
# Description: Extract of Nephrotoma cornicina (Linnaeus, 1758) (Tipulidae, Diptera) contains a glycosylated triketide lactone, here named cornicinine. The compound according to the invention is present in the head, thorax, abdomen, legs and wings of the insect, from both sexes.
# An Azolla shoot apex +/−3 mm long was excised and placed in a 2 ml Eppendorf tube filled with modified, N-free Hoagland solution to which was added the material to be tested. The culture was performed at 26° C. under constant light intensity of 110 μM. m^−2.sec^−1 and with daily adjustment of the liquid level with distilled water to compensate evapotranspiration. Activity was indicated by progressive chlorosis of Azolla, which appears after 5 days. Akinete differentiation can alternatively be followed by observation of leaf squashes under a light microscope, with first symptoms appearing after 48 hours of treatment.
# [2] = tested on: A. azollae vegetative cells; test: Azolla shoot apex bioassay: akinete differentiation of A. azollae / chlorosis of Azolla; assay type: cell-based, Anabaena azollae
# Description: Approximately 10 000 dried N. cornicina (36 g) were ground, suspended in 750 ml H2O, treated 60′ in a 100° C. water bath and centrifuged (14 000×g, 60′). The residue was re-suspended in 300 ml H2O, shacked 15′ and centrifuged (14 000×g, 60′). The two supernatants were grouped, filtered on Macherey-Nagel MN 615 paper and lyophilized. The dry residue (7 g) was suspended in 8 ml H2O, vortexed and centrifuged (7 800×g, 30′). Six ml of supernatant were filtered on acrodiscs 0.22 μm in four 1.5 ml batches, each filtrate being chromatographed on a 500 ml, 2.5 cm diameter Sephadex G 10 column (eluent: water; 3′/fraction, around 6 ml/fraction) The residue was suspended in 2 ml H2O, vortexed and centrifuged (7 800×g, 30′). Two ml of supernatant were filtered and chromatographed as above. This last procedure was repeated twice. Absorbance of each fraction was measured at 254 nm and bioassays were performed on 50 μl of each fraction from the seven chromatograms.
# Azolla is a small aquatic fern, which multiplies, most often vegetatively, at the surface of still water bodies, where it can form dense floating carpets. Anabaena azollae is the only known diazotrophic symbiont associated to a pteridophyte, Azolla and the only one linked to a plant throughout its life cycle. […]
substance,measurement,setting,value
cornicinine,stability,[1],stable
same,concentration able to induce the differentiation of all the vegetative cells of A. azollae into akinetes,[2]; all vegetative cells into akinetes,nanomolar concentrations
same,activity on Azolla species,[2]; the seven generally recognised Azolla species,active
